Measurements: paper PMC3735939, “The low levels of eicosapentaenoic acid in rat brain phospholipids are maintained via multiple redundant mechanisms” (Journal of Lipid Research, 2013)

Columns and labels:
[1] = In vivo kinetics of FA incorporation and turnover in brain phospholipids (intravenous radiotracer infusion, kinetic model); parameters: species or system rat; conditions: MEP vs vehicle
Procedure, shortened: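 Rats were given vehicle or MEP 10 mg/kg via tail vein, then radiolabelled fatty acid was infused intravenously for 5 min to steady-state plasma radioactivity while the animals were unanesthetized, with serial jugular blood sampling. They were killed by head-focused microwave irradiation, and brain incorporation was modelled from plasma unesterified fatty acid and acyl-CoA pools.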

[2] = Brain acyl-CoA concentrations (LC-MS/MS) in vehicle- or MEP-treated rats; format: in vivo, rat; conditions: MEP vs vehicle
Description: At 15 weeks of age, 16 rats were randomized to receive vehicle or 10 mg/kg MEP via tail vein catheter as described above. Fifteen minutes post injection, rats were euthanized by head-focused high energy microwave irradiation (13.5 kW for 1.6 s) and brains were excised and sagittally cut for unesterified FAs/lipid mediators and acyl-CoA analyses as described below. Brain hemispheres were homogenized in ethanol to yield a concentration of 100 mg tissue/ml. The unesterified FAs from 100 mg of brain tissue were isolated. The unesterified FA bands were collected and extracted twice from silica by hexane:isopropanol (3:2 by volume) with 5.5% water. Extracted unesterified FAs were dried down with nitrogen gas and added with 100 μl of freshly made pentafluorobenzylbromide (PFB) cocktail consisting of acetonitrile:N,N-diisopropylethylamine:PFB (1 ml:100 μl:10 μl by volume). The mixtures were shaken for 15 min and dried down with nitrogen gas. FA-PFB esters (FAPEs) were reconstituted in 100 μl hexane for GC-MS analysis as described below.
Long chain acyl-CoA was extracted from the brains of vehicle- and MEP-treated rats as well as the brains of radiotracer-infused rats using a modified affinity chromatography method ([40]). Brains were homogenized by a probe sonicator in isopropanol:25 mM KH2PO4:acetonitrile (1:1:2 by volume) with 10 nmol of added internal standard, heptadecanoyl-CoA (17:0-CoA). Subsequently, protein was precipitated from the homogenate by the addition of saturated (NH4)2SO4. […]
Acyl-CoA concentrations were detected using an Agilent 1200 Binary LC pump (Agilent Technologies, Wilmington, DE) equipped with a Zorbax SB-Phenyl column (3 × 50 mm, 3.5 μm spherical size; Chromatographic Specialties, Brockville, ON, Canada). […] Peaks were identified and quantified by mass transitions, compound specific parameters, and standard curves of authentic acyl-CoA standards (Avanti, Alabaster, AL) (supplementary Fig. I). Concentrations were corrected for percent recovery of heptadecanoyl-CoA and expressed as nmol/g brain.

With `CCCCCCCCCCCCCCC1(C(=O)OC)CO1` (centres unmarked) [MEP, methyl-2-tetradecylglycidate, reference compound] the “fold increase in esterification of 14C-palmitate into diacylglycerol” value [1] was 2 fold, the “fold increase in esterification of 14C-palmitate into triacylglycerol” value [1] was 2 fold and the “fold increase of t1/2 of EPA in ChoGpl” value [1] was 1.7 fold. For the same compound, the “fold increase of t1/2 of EPA-synthesized DHA in ChoGpl” value [1] was 4.3 fold, the “fold increase of t1/2 of EPA-synthesized DHA in EtnGpl” value [1] was 2.5 fold and the “fold increase of t1/2 of EPA-synthesized DHA in brain total phospholipids” value [1] was 4.2 fold. The “fold increase of t1/2 of EPA-synthesized n-3 DPA in PtdSer” value [1] was 1.6 fold, the “reduction of FFA of DHA in brain total phospholipids” value [1] was 24 % per day and the “increase in brain α-linolenoyl-CoA concentration” value [2] was 49%. The “reduction in brain DHA-CoA” value [2] was 26% and the “reduction in brain EPA-CoA” value [2] was 16%.
